Test results from US10662477B2, “Biomarkers and methods to predict response to inhibitors and uses thereof” (Millennium Pharmaceuticals, Inc., priority 2012, dated 2020).
Read-outs that look alike come from different tables or passages of the source.

How the values were obtained:
NSCLC patients [1] = assay: BATTLE clinical trial Erlotinib arm, progression-free survival by Erlotinib PLSR model group; format: in vivo, human
human melanoma tumors = assay: Melanoma explants (human tumor xenografts) in mice treated with MLN4924, tumor growth; format: in vivo; conditions: subcutaneous treatment
tumor xenografts = assay: Xenograft models of MLN4924 treatment, average plasma concentration needed for tumor stasis, sensitivity rank; format: in vivo, rats or mice; conditions: for C avg at stasis: average plasma concentration needed to reach tumor stasis; for Sensitivity Rank: rank of 1 is most sensitive, 16 is least sensitive
NSCLC patients [2] = assay: BATTLE clinical trial Sorafenib arm, progression-free survival by Sorafenib PLSR model group; format: in vivo, human
Kidney cancer [3] = assay: Sorafenib phase III clinical trial on Kidney cancer; format: in vivo, human; conditions: Sorafenib vs. placebo
Kidney cancer [4] = conditions: phase III clinical trial, cited from earlier work

SMILES: C#Cc1cccc(Nc2ncnc3cc(OCCOC)c(OCCOC)cc23)c1 [Erlotinib, N-(3-ethynylphenyl)-6,7-bis(2-methoxyethoxy) quinazolin-4-amine]
- PFS (NSCLC patients [1]; Erlotinib-resistant patients (Erlotinib PLSR signature), BATTLE Erlotinib arm): 1.84 month
- median PFS (NSCLC patients [1]; Erlotinib-sensitive patient group (Erlotinib PLSR signature), BATTLE Erlotinib arm): 3.84 month
- Hazard ratio (NSCLC patients [1]; Erlotinib-sensitive vs Erlotinib-resistant patient group, PFS, p-value 0.09): 0.43

SMILES: NS(=O)(=O)OC[C@@H]1C[C@@H](n2ccc3c(N[C@H]4CCc5ccccc54)ncnc32)C[C@@H]1O [MLN4924, ((1S,2S,4R)-4-{4-[(1S)-2,3-dihydro-1H-inden-1-ylamino]-7H-pyrrolo[2,3-d]pyrimidin-7-yl}-2-hydroxycyclopentyl)methyl sulphamate]
- Experimental Result with MLN4924 treatment (human melanoma tumors; melanoma explant 1, tumor growth in mice): Sensitive
- Experimental Result with MLN4924 treatment (human melanoma tumors; melanoma explant 2, tumor growth in mice): Sensitive
- Experimental Result with MLN4924 treatment (human melanoma tumors; melanoma explant 3, tumor growth in mice): Sensitive
- Experimental Result with MLN4924 treatment (human melanoma tumors; melanoma explant 4, tumor growth in mice): Resistant
- Experimental Result with MLN4924 treatment (human melanoma tumors; melanoma explant 5, tumor growth in mice): Resistant
- Experimental Result with MLN4924 treatment (human melanoma tumors; melanoma explant 6, tumor growth in mice): Resistant
- Experimental Result with MLN4924 treatment (human melanoma tumors; melanoma explant 7, tumor growth in mice): Resistant
- Experimental Result with MLN4924 treatment (human melanoma tumors; melanoma explant 8, tumor growth in mice): Resistant
- Experimental Result with MLN4924 treatment (human melanoma tumors; melanoma explant 9, tumor growth in mice): Resistant
- Experimental Result with MLN4924 treatment (human melanoma tumors; melanoma explant 10, tumor growth in mice): Resistant
- C avg at stasis (tumor xenografts; A375 xenograft, melanoma): 6.837 µg/mL
- Sensitivity Rank (tumor xenografts; A375 xenograft): 7
- C avg at stasis (tumor xenografts; DLD-1 xenograft, colon adenocarcinoma): 17.476 µg/mL
- Sensitivity Rank (tumor xenografts; DLD-1 xenograft): 16
- C avg at stasis (tumor xenografts; DU-145 xenograft, prostate cancer): 9.365 µg/mL
- Sensitivity Rank (tumor xenografts; DU-145 xenograft): 11
- C avg at stasis (tumor xenografts; HCT116 (grown in mouse) xenograft, colorectal carcinoma): 1.983 µg/mL
- Sensitivity Rank (tumor xenografts; HCT116 (grown in mouse) xenograft): 2
- C avg at stasis (tumor xenografts; HCT116 (grown in rat) xenograft, colorectal carcinoma): 1.490 µg/mL
- Sensitivity Rank (tumor xenografts; HCT116 (grown in rat) xenograft): 1
- C avg at stasis (tumor xenografts; HL-60 xenograft, promyelocytic leukemia): 2.023 µg/mL
- Sensitivity Rank (tumor xenografts; HL-60 xenograft): 3
- C avg at stasis (tumor xenografts; HT29 xenograft, colon adenocarcinoma): 7.171 µg/mL
- Sensitivity Rank (tumor xenografts; HT29 xenograft): 9
- C avg at stasis (tumor xenografts; NCI-H69 xenograft, small cell lung cancer): 6.868 µg/mL
- Sensitivity Rank (tumor xenografts; NCI-H69 xenograft): 8
- C avg at stasis (tumor xenografts; NCI-H82 xenograft, small cell lung cancer): 5.316 µg/mL
- Sensitivity Rank (tumor xenografts; NCI-H82 xenograft): 5
- C avg at stasis (tumor xenografts; NCI-H322M xenograft, non-small cell lung carcinoma): 14.722 µg/mL
- Sensitivity Rank (tumor xenografts; NCI-H322M xenograft): 14
- C avg at stasis (tumor xenografts; NCI-H460 xenograft, non-small cell lung carcinoma): 17.070 µg/mL
- Sensitivity Rank (tumor xenografts; NCI-H460 xenograft): 15
- C avg at stasis (tumor xenografts; PC3 xenograft, prostate cancer): 5.968 µg/mL
- Sensitivity Rank (tumor xenografts; PC3 xenograft): 6
- C avg at stasis (tumor xenografts; PHTX-02B xenograft, Breast cancer): 3.691 µg/mL
- Sensitivity Rank (tumor xenografts; PHTX-02B xenograft): 4
- C avg at stasis (tumor xenografts; PHTX-50M xenograft, melanoma): 8.501 µg/mL
- Sensitivity Rank (tumor xenografts; PHTX-50M xenograft): 10
- C avg at stasis (tumor xenografts; PHTX-51M xenograft, melanoma): 11.588 µg/mL
- Sensitivity Rank (tumor xenografts; PHTX-51M xenograft): 13
- C avg at stasis (tumor xenografts; SKOV3 xenograft, ovarian carcinoma): 9.890 µg/mL
- Sensitivity Rank (tumor xenografts; SKOV3 xenograft): 12

SMILES: CNC(=O)c1cc(Oc2ccc(NC(=O)Nc3ccc(Cl)c(C(F)(F)F)c3)cc2)ccn1 [Sorafenib]
- median PFS survival (NSCLC patients [2]; marker-insensitive group (Sorafenib model), BATTLE Sorafenib arm): 1.87 months
- median PFS survival (NSCLC patients [2]; marker-sensitive group (Sorafenib model), BATTLE Sorafenib arm): 4.53 months
- PFS survival benefit (NSCLC patients [2]; marker-sensitive group vs marker-resistant group, BATTLE Sorafenib arm): 2.66 months
- Hazard-ratio (NSCLC patients [2]; marker-sensitive vs marker-resistant group, PFS, p-value 0.006): 0.32
- PFS benefit (Kidney cancer [3]): 2.77 month
- median survival (Kidney cancer [4]; Sorafenib arm (placebo 84 days)): 167 days
- median survival (Kidney cancer [4]; Sorafenib arm, days converted to months (placebo 2.80)): 5.57 months
